Measured values taken from patent publication US11226337B2, “Chemoproteomic profiling of protein electrophilic and oxidative post-translational modifications” (Zenagem, LLC, priority 2017, dated 2022).
One block for each compound: values may come before it.

Legend:
Experiment in all cases: SILAC RP-ABPP
Conditions in all cases: SILAC H/L
[1] = biological target: T1, FTH1 Ferritin heavy chain (P02794) (Homo sapiens, UniProt P02794); assay type: cell-based
T1 construct: In Situ Labelling of Cells with Hydrazine Probes for MS Experiments; endogenous in cells; host or cells: HEK293T and/or MDA-MB-231
Description: (§1) For MS-based experiments, labelling was performed in a similar manner as described above in Example 2, maintaining the same concentrations of probes. Modifications to this protocol included using isotopically ‘light’ and ‘heavy’ SILAC cells that were also grown to near complete confluence prior to treatment. Isotopically light cells were treated with the non-clickable hydrazine probe (at the same concentration as the probe in ‘enrichment’ experiments) or the probe in the presence of 10-fold excess non-clickable hydrazine probe as a competitor (in ‘competition’ experiments). Isotopically heavy cells were treated with the probe for both types of experiments. These treatments were performed in non-SILAC media. Following treatments, cells were washed with cold PBS to remove the probe-containing media, harvested by scraping, collected by centrifugation (1,400 g, 3 min, 4° C.), washed again by resuspension in cold PBS and frozen as pellets at −80° C. until use.
(§2) The fractionated equimolar mixture of heavy and light soluble proteomes (1-1.5 mg) was diluted to 1 mL in PBS. Click reactions were scaled accordingly (except for biotin-azide) to maintain final concentrations of 0.1 mM TBTA, 1 mM CuSO4, 100 μM biotin-azide (10 mM in DMSO) and 1 mM TCEP. The mixture was vortexed and placed on a rotator at ambient temperature for 1 hour. Sequential addition of and mixture with pre-chilled methanol (MeOH, 2 mL), chloroform (CHCl3, 0.5 mL) and PBS (1 mL) on ice quenched the reaction. The precipitated proteome was centrifuged (5,000 g, 10 min, 4° C.) to fractionate the protein interphase from the organic and aqueous solvent layers. The protein pellet was washed with cold 1:1 MeOH:CHCl3 (3×1 mL), mildly sonicated in cold 4:1 MeOH:CHCl3 (2.5 mL) and pelleted once more by centrifugation (5,000 g, 10 min, 4° C.) to ensure click reagents were efficiently removed.
(§3) Heavy and light parent ion chromatograms associated with successfully identified peptides were extracted and compared using CIMAGE software as previously described^69. At least one ion of a co-eluting heavy-light pair must be accurately identified from a fragmentation event that occurred within the retention time window (±10 min) of parent ion elution. To ensure that the correct pair of peaks is quantified, chromatograms are extracted within a 10 ppm error tolerance of the predicted m/z, the signal-to-noise ratio must be >2.5 and the ‘co-elution correlation score’ and ‘envelope correlation score’ must have R^2 values ≥0.8. In addition, peptides detected as ‘singletons,’ where only the heavy ion of a peptide pair was identified, but for which passed all other filtering parameters, are given a default assigned ratio of ‘20,’ which is defined as any measured ratio that is ≥20.
(§4) To further eliminate false positives and any stochastic variability in the data, protein ratios were then determined by the median peptide ratio derived from three or more unique quantified peptides. Protein ratios that complied with these criteria from a single experiment were then averaged with ratios acquired from ≥3 replicates to provide final values for each type of experiment in both cell lines with both probes. […] Most importantly, there are no robustly measured ratios for proteins identified as probe 1 targets that had measured ratios of ˜1 with probe 2. Probe targets in HEK293T and MDA-MB-231 cells represent data combined from ≥3 independent biological replicates with each cell type performed with several independent batches of synthesized probes over a period of almost two years.
(§5) Analogous experiments were also performed with the aryl hydrazine probe 2 (1 mM, 0.5 hour), which furnished a larger list of high-reactivity proteins (33 in total; Table 3) that contained several of the targets of probe 1 (compared in Table 4), as well as additional proteins that may reflect an expanded chemical reactivity for probe 2.

[2] = biological target: T2, FTO Alphaketoglutaratedependent dioxygenase (Q9C0B1) (Homo sapiens, UniProt Q9C0B1); assay type: cell-based
T2 construct: In Situ Labelling of Cells with Hydrazine Probes for MS Experiments; endogenous in cells; host or cells: HEK293T and/or MDA-MB-231
Description: as §1, §2, §3, §4, §5

[3] = biological target: T3, CTSA Lysosomal protective protein (P10619) (Homo sapiens, UniProt P10619); assay type: cell-based
T3 construct: In Situ Labelling of Cells with Hydrazine Probes for MS Experiments; endogenous in cells; host or cells: HEK293T and/or MDA-MB-231
T3 sequence (P10619 29-480): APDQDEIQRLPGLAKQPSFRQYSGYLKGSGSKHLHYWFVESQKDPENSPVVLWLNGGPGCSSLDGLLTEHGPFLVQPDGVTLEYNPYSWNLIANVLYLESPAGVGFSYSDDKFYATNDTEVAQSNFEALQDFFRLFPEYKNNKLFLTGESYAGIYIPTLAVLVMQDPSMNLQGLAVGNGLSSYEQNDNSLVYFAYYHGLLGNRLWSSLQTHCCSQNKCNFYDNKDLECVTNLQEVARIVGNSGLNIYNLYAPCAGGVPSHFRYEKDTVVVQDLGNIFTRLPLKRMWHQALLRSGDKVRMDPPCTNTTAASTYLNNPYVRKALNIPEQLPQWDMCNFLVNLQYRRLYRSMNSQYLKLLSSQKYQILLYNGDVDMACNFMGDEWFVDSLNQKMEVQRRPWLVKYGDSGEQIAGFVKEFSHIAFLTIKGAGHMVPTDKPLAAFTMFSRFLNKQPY
Description: as §1, §2, §3, §4, §5

[4] = biological target: T4, DENR Densityregulated protein (O43583) (Homo sapiens, UniProt O43583); assay type: cell-based
T4 construct: In Situ Labelling of Cells with Hydrazine Probes for MS Experiments; endogenous in cells; host or cells: HEK293T and/or MDA-MB-231
T4 sequence (O43583 1-198): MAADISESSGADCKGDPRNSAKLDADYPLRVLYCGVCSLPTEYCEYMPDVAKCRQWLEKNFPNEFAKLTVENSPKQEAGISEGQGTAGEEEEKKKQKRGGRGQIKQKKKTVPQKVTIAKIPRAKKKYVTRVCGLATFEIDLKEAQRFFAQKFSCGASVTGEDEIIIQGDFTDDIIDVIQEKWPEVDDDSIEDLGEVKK
Description: as §1, §2, §3, §4, §5

[5] = biological target: T5, PPT1 Palmitoylprotein thioesterase 1 (P50897) (Homo sapiens, UniProt P50897); assay type: cell-based
T5 construct: In Situ Labelling of Cells with Hydrazine Probes for MS Experiments; endogenous in cells; host or cells: HEK293T and/or MDA-MB-231
T5 sequence (P50897 28-306): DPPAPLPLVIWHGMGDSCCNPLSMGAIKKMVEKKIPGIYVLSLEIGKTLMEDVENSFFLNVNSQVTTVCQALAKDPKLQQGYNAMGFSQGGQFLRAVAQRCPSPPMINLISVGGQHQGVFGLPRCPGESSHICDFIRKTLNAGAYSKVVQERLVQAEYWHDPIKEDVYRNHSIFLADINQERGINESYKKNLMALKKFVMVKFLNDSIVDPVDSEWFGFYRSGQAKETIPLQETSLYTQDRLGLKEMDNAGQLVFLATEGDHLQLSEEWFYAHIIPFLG
Description: as §1, §2, §3, §4, §5

[6] = biological target: T6, CTSC Dipeptidyl peptidase 1 (P53634) (Homo sapiens, UniProt P53634); assay type: cell-based
T6 construct: In Situ Labelling of Cells with Hydrazine Probes for MS Experiments; endogenous in cells; host or cells: HEK293T and/or MDA-MB-231
Description: as §1, §2, §3, §4, §5

[7] = tested on: Uncharacterized protein (H7C469); assay type: cell-based, human
Description: as §1, with “use. […]” for “use.”
as §3, with “At least one ion of a co-eluting heavy-light pair must be accurately identified from a fragmentation event that occurred within the retention time window (±10 min) of parent ion elution.” left out
To further eliminate false positives and any stochastic variability in the data, protein ratios were then determined by the median peptide ratio derived from three or more unique quantified peptides. […] Most importantly, there are no robustly measured ratios for proteins identified as probe 1 targets that had measured ratios of ˜1 with probe 2. […]

[8] = probe 1 3 mM 0.5 h vs probe 3, cell line not given
[9] = probe 1 vs probe 1+10x probe 3, cell line not given
[10] = probe 2 1 mM 0.5 h vs probe 4, MDA-MB-231
[11] = probe 2 vs probe 2+10x probe 4, MDA-MB-231

Structure (SMILES): C#CCNN.Cl [probe 1, prop-2-yn-1-ylhydrazine hydrochloride]
enrichment ratioavg [1, 8]: 1 | competition ratioavg [1, 9]: 1 | competition ratioavg [2, 9]: 1 | enrichment ratioavg [3, 8]: 4 | competition ratioavg [3, 9]: 4 | competition ratioavg [4, 9]: 1 | competition ratioavg [5, 9]: 5 | competition ratioavg [6, 9]: 3 | competition ratioavg [7, 9]: 2

enrichment ratioavg [1, 10]: 20 | competition ratioavg [1, 11]: 5 | enrichment ratioavg ([2]; probe 2 1 mM 0.5 h vs probe 4, HEK293T): 13 | competition ratioavg ([2]; probe 2 vs probe 2+10x probe 4, HEK293T): 5 | enrichment ratioavg [3, 10]: 9 | competition ratioavg [3, 11]: 4 | enrichment ratioavg [4, 10]: 20 | competition ratioavg [4, 11]: 5 | enrichment ratioavg [5, 10]: 20 | competition ratioavg [5, 11]: 5 | enrichment ratioavg [6, 10]: 20 | competition ratioavg [6, 11]: 9
Structure (SMILES): C#CCCNC(=O)c1ccc(NN)cc1.Cl [probe 2, N-(but-3-yn-1-yl)-4-hydrazinylbenzamide hydrochloride]
enrichment ratioavg [7, 10]: 14 | competition ratioavg [7, 11]: 5
